Experimental data reported in US20240277705A1, “DOSAGE REGIMENS FOR ECUBECTEDIN” (PHARMA MAR S.A., priority 2021, published 2024).
Entries after “also recorded” stand apart in the source; their conditions may differ.

Columns and labels:
[1] = system: advanced solid tumors; assay: Phase I dose-escalating study, antitumor activity; format: in vivo, human; settings: patients, various cancers
From the text: Antitumor response will be assessed using the RECIST v.1.1 and/or serum tumor markers as appropriate (see above).
Open-label, dose-escalating, phase I trial of PM14 administered as a 3-hour infusion i.v. every 3 weeks (q3wk) in human patients (pts) with advanced solid tumors, adequate organ function and ECOG PS score of 0-1. Two schedules were explored: Schedule A (Day 1 [D1], Day 8 [D8]) and Schedule B (D1).
Secondary Endpoints • Safety: patients will be evaluable for safety if they have received at least one partial infusion of PM14. AEs will be graded according to the NCI-CTCAE v.4. Additionally, treatment-related discontinuations and treatment compliance (dose reduction, skipped doses and/or treatment delays due to AEs), will be described. • Pharmacokinetics: PK analyses will be evaluated in plasma and urine by standard non-compartmental analysis (compartmental modeling may be performed if appropriate). […] Their mutational status might also be analyzed, if relevant. Their correlation with the clinical response and outcome after treatment will be assessed. • Efficacy: patients will be evaluable for efficacy if they receive at least one complete infusion of PM14 and have at least one clinical or radiological tumor assessment as per RECIST v.1.1 or serum markers, or if they are considered to have failed treatment. […]

[2] = system: RXF 1781L (hypernephroma, poorly differentiated); assay: Propidium iodide monolayer cell proliferation assay, RXF 1781L; format: cell-based, human; settings: four days of treatment
Procedure: Working stock solution of PM14 was prepared in DMSO at a concentration of 1.042 mM and small aliquots were stored at −20° C. On each day of an experiment, a frozen aliquot of the working stock solution was thawed and stored at room temperature prior to and during treatment.
Subsequent dilutions were done with complete RPMI 1640 cell culture medium. DMSO stock solutions were first diluted 1:22 (corresponding to 4.5% v/v DMSO). Starting with this solution, serial dilutions in half-log steps with cell culture medium were done using an intermediate dilution plate. Finally, 10 μl taken from the intermediate dilution plate were transferred to 140 μl/well of the cell culture plate. […]
Cell proliferation assay: A modified propidium iodide (PI) based monolayer assay was used to assess the anti-cancer activity of the compounds (Dengler WA, Schulte J, Berger DP, Mertelsmann R, Fiebig HH, Anti-Cancer Drugs 1995, 6: 522-532). Briefly, cells were harvested from exponential phase cultures, counted and plated in 96 well flat-bottom microtiter plates at a cell density of 4,000 to 30,000 cells/well dependent on the cell line's growth rate. […] After an incubation period of 1-2 hours at room temperature, fluorescence (FU) was measured using the Enspire Multimode Plate Reader (excitation A=530 nm, emission A=620 nm) to quantify the amount of attached viable cells. […]

[3] = MRI-H-121 mouse xenograft study, tolerability; format: in vivo, mice
Procedure: Tumor bearing animals were randomly allocated into 2 groups (N=10/group): PM14 administered at 1.25 mg/kg and placebo. All treatments were intravenously administered once a week for 3 consecutive weeks (days 0, 7 and 14).
Tumor volume and animal body weights were measured 2-3 times per week starting from the first day of treatment.
Treatment tolerability was assessed by monitoring body weight evolution, clinical signs of systemic toxicity, as well as evidences of local damage in the injection site.
Treatments producing >20% lethality and/or 20% net body weight loss were considered toxic. Animals were euthanized when their tumors reached ca. 2,000 mm^3 and/or severe necrosis was seen.

What does the source list for COc1c(C)cc2c(c1O)[C@@H]1[C@@H]3[C@@H]4SC[C@]5(N[C@H](CO)Cc6c5[nH]c5ccccc65)C(=O)OC[C@@H](c5c6c(c(C)c(OC(C)=O)c54)OCO6)N3[C@@H](O)[C@H](C2)N1C [PM14, ECUBECTEDIN]?
antitumor response [1]: prolonged tumor stabilizations; also recorded: stable disease (SD); IC50 ([2]; Homo sapiens, 96 h, read-out: IC50, μM (geometric mean)): 0.004 µM; IC70, μM (geometric mean) [2]: 0.005 µM; mortality ([3]; 1.25 mg/kg i.v. days 0, 7 and 14): No mortality; mean body weight reduction ([3]; Day 16, 1.25 mg/kg i.v. days 0, 7 and 14, reversible): ca. −15.0%; tolerability ([3]; MRI-H-121 tumor bearing animals, 1.25 mg/kg): well tolerated
